Assay results reported in patent EP3248604A1, “AGENTS FOR MODULATION OF WNT-TCF SIGNALLING AND USES THEREOF” (UNIVERSITE DE GENEVE, priority 2016, dated 2017).

What was measured:
Ls174T cells = conditions: FACS, vs DMSO
Description: Cell were plated with different concentrations of compounds in a 96-well format and incubated in standard conditions for 6h and imaged. Active (cleaved) Caspase-3^+ apoptosis was determined using the BD Pharmigen kit and FACS (fluorescence-activated cell sorting).

WNT-TCF targets [1] = assay: Epistatic rescue with TCF^VP16, DLD1; assay type: cell-based, human; conditions: CAP2 5µM, 16h
Description: Lentivectors expressing a TCF4^VP16 protein in a vector independently expressing GFP, or vector alone, plus reporter plasmids were transfected into cells. 72h after transfection cells were visually checked for expression of GFP. Independent batches of cells with >80% GFP expression were chosen for further experimentation and treated with or without compounds in DMEM-F12 (with 2.5% FBS) for 16h and collected in Trizol.
If the effects of CAP2 on WNT-TCF targets were specific, an activated form of TCF should rescue the repression since CAP2 is likely to act downstream of the APC destruction complex since it was found using an N'Δ form of βCATENIN that is APC insensitive. To activate this last step of canonical WNT signaling, a fusion between TCF and the potent transactivation domain of the viral VP16 protein, TCF^VP16 (Melotti et al., 2014, supra), was used to directly and positively regulate TCF targets. […] Rescue of LGR5, cMYC and ASCL2 repression by CAP2 (at 5µM) was also observed although there was variability between the cell types, similarly to the repression of CDKN1A (Table 8), although in all cases it reversed its enhancement by CAP2 treatment (Table 8).

WNT-TCF targets [2] = assay: RT-qPCR gene expression in H358 lung cancer cells; assay type: cell-based, human; conditions: 16h, batch 3, vs DMSO=1
Description: (§1) RT-qPCR was performed as in Melotti et al. (2014, supra) using BioRad equipment and reagents. Cells cultured in nitro were treated with the desired concentration of drug in DMEM-F12 and reduced serum (2.5% FBS) for 16h, unless otherwise noted, and collected in Trizol (Sigma) before total RNA extraction and cDNA synthesis. Primers were as in Table 1. HPRT (gene encoding Hypoxanthine phosphoribosyltransferase 1) and βACTIN were used as housekeeping controls for normalization.
(§2) Primary colon cells CC14, CC36 and mCC11, colon cancer cell lines DLD1, HT29, Ls174T, melanoma cell line MeWo, glioblastoma cell lines U87 and U251, and the lung cancer cell line H358 were cultured in DMEM-F12 with 10% FBS under standard in nitro conditions.

WNT-TCF targets [3] = assay: RT-qPCR gene expression in CC14 primary colon cancer cells; assay type: cell-based, human; set-up: cMYC expression: scale not given here
Description: as §1
Primary colon cells CC14 were cultured in DMEM-F12 with 10% FBS under standard in vitro conditions.
as §2

WNT-TCF targets [4] = assay: RT-qPCR in cells dissociated from DLD1 xenograft tumors, treated in vitro; assay type: cell-based, human; conditions: 16h, vs DMSO
Description: as §1
Four DLD1 regressed tumors were monitored after cessation of CAP2 treatment to determine recurrence after drug withdrawal. […] Tumor regrowth, however, could be due in principle to insufficient drug dosage or to the development of drug resistance. To test these possibilities the recurrent tumor was thus excised and the cells plated in vitro to test for the possible development of CAP2 resistance. One control in vivo cyclodextrin-treated tumor taken before reaching the legal (at around 21 day) limit was similarly processed to serve as control. […] The levels of WNT-TCF targets were generally lower in cells derived from tumors that were exposed in vivo to CAP2 in comparison to those in cells from tumors that were not treated with CAP2 (Figure 10). […] This consistent difference in the levels of several WNT-TCF targets raised the possibility that whereas tumor recurrence might be due to incomplete initial dosage, the recurring tumor harbored the memory of previous CAP2 treatment.

WNT-TCF targets [5] = assay: RT-qPCR gene expression in U251 glioblastoma cells; assay type: cell-based, human; conditions: 16h, batch 3, vs DMSO=1
Description: as §1, §2

Epigenetic regulators = assay: RT-qPCR gene expression in Ls174T cells, epigenetic regulators; assay type: cell-based, human; set-up: key: ratio normalized to DMSO control = 1; conditions: vs DMSO=1
Description: as §1
Nine components of the three pathways (WNT-TCF, BMP/TGFβ and chemokine/cytokine), and the top 6 repressed epigenetic regulators (ZMYND8, EED, SMARCAL1, TBLIXR1, SETD6 and TAF5L) (Figure 12) were tested for their modulation by dnTCF and their timed response to CAP2 treatment. […] DnTCF also repressed the expression of BMP4, SMAD6, IL8, CXCL3 and CXCL5, but expression of IL33 was enhanced. […] BMP4 and ID2 were also repressed at 2 and 4h but SMAD6 was repressed only at 4h. CXCL3 was already repressed at 2h, IL8 was little affected and IL33 and CXCL5 were enhanced at 2h. At 4 h only CXCL3 was repressed and the other three cytokine/chemokine genes tested (IL8, IL33 and CXCL5) were neither enhanced nor repressed. […] All values are normalized ratios with DMSO-controls, which were equated to 1 Table 14

[6] = CC14, 1.25µM, 16h, batch 3, vs DMSO=1
[7] = CC14, 2.5µM, 16h, batch 3, vs DMSO=1
[8] = CC14, 5µM, 16h, batch 3, vs DMSO=1
[9] = CC14, 10µM, 16h, batch 3, vs DMSO=1
[10] = DLD1 CAP2-treated tumor dissociated re-treated in vitro, 2.5µM
[11] = DLD1 CAP2-treated tumor dissociated re-treated in vitro, 5µM
[12] = DLD1 control tumor dissociated treated in vitro, 2.5µM
[13] = DLD1 control tumor dissociated treated in vitro, 5µM

CC1=C(C)C(=O)O[C@@H]([C@](C)(O)[C@]2(O)CC[C@@]3(O)[C@@H]4CC=C5CC=CC(=O)[C@]5(C)[C@H]4CC[C@]23C)C1 [CAP2]
concentration from which activated Caspase3 labeled cells increase (Ls174T cells): 2.5 µM | ASCL2 expression, TCF^VP16+ CAP2 / control + CAP2 (WNT-TCF targets [1]): 1.5 | AXIN2 expression, TCF^VP16+ CAP2 / control + CAP2 (WNT-TCF targets [1]): 3.4 | CDKN1A expression, TCF^VP16+ CAP2 / control + CAP2 (WNT-TCF targets [1]): 0.4 | LGR5 expression, TCF^VP16+ CAP2 / control + CAP2 (WNT-TCF targets [1]): 1.4 | cMYC expression, TCF^VP16+ CAP2 / control + CAP2 (WNT-TCF targets [1]): 0.8 | AXIN2 expression (WNT-TCF targets [2]; 1.25µM): 0.8 | LEF1 expression (WNT-TCF targets [2]; 1.25µM): 0.4 | AXIN2 expression (WNT-TCF targets [2]; 2.5µM): 0.7 | LEF1 expression (WNT-TCF targets [2]; 2.5µM): 0.6 | AXIN2 expression (WNT-TCF targets [2]; 5µM): 0.6 | LEF1 expression (WNT-TCF targets [2]; 5µM): 0.4 | AXIN2 expression (WNT-TCF targets [2]; 10µM): 0.4 | LEF1 expression (WNT-TCF targets [2]; 10µM): 0.2 | AXIN2 expression (WNT-TCF targets [3]; 100 nM, Example 2 cells (CC14)): 0.7 | LGR5 expression (WNT-TCF targets [3]; 100 nM, Example 2 cells (CC14)): 0.3 | cMYC expression (WNT-TCF targets [3]; 100 nM, Example 2 cells (CC14)): 0.2 | AXIN2 expression (WNT-TCF targets [3]; [6]): 0.9 | LGR5 expression (WNT-TCF targets [3]; [6]): 1.0 | AXIN2 expression (WNT-TCF targets [3]; [7]): 1.5 | LGR5 expression (WNT-TCF targets [3]; [7]): 0.8 | AXIN2 expression (WNT-TCF targets [3]; [8]): 0.7 | LGR5 expression (WNT-TCF targets [3]; [8]): 0.1 | AXIN2 expression (WNT-TCF targets [3]; [9]): 0.7 | LGR5 expression (WNT-TCF targets [3]; [9]): 0.03 | ASCL2 expression (WNT-TCF targets [4]; [10]): 0.05 | AXIN2 expression (WNT-TCF targets [4]; [10]): 0.4 | LEF1 expression (WNT-TCF targets [4]; [10]): 0.4 | LGR5 expression (WNT-TCF targets [4]; [10]): 0.6 | cMYC expression (WNT-TCF targets [4]; [10]): 0.2 | ASCL2 expression (WNT-TCF targets [4]; [11]): 0.1 | AXIN2 expression (WNT-TCF targets [4]; [11]): 0.3 | LEF1 expression (WNT-TCF targets [4]; [11]): 0.3 | LGR5 expression (WNT-TCF targets [4]; [11]): 0.3 | cMYC expression (WNT-TCF targets [4]; [11]): 0.1 | ASCL2 expression (WNT-TCF targets [4]; [12]): 0.1 | AXIN2 expression (WNT-TCF targets [4]; [12]): 0.6 | LEF1 expression (WNT-TCF targets [4]; [12]): 0.4 | LGR5 expression (WNT-TCF targets [4]; [12]): 0.7 | cMYC expression (WNT-TCF targets [4]; [12]): 0.3 | ASCL2 expression (WNT-TCF targets [4]; [13]): 0.1 | AXIN2 expression (WNT-TCF targets [4]; [13]): 0.6 | LEF1 expression (WNT-TCF targets [4]; [13]): 0.3 | LGR5 expression (WNT-TCF targets [4]; [13]): 0.4 | cMYC expression (WNT-TCF targets [4]; [13]): 0.3 | AXIN2 expression (WNT-TCF targets [5]; 1.25µM): 0.9 | LGR5 expression (WNT-TCF targets [5]; 1.25µM): 0.5 | AXIN2 expression (WNT-TCF targets [5]; 2.5µM): 0.8 | LGR5 expression (WNT-TCF targets [5]; 2.5µM): 0.3 | AXIN2 expression (WNT-TCF targets [5]; 5µM): 0.7 | LGR5 expression (WNT-TCF targets [5]; 5µM): 0.2 | AXIN2 expression (WNT-TCF targets [5]; 10µM): 0.5 | LGR5 expression (WNT-TCF targets [5]; 10µM): 0.2 | EED expression (Epigenetic regulators; 5µM batch 3, 2h post-treatment): 1.5 | SETD6 expression (Epigenetic regulators; 5µM batch 3, 2h post-treatment): 2.0 | SMARCAL1 expression (Epigenetic regulators; 5µM batch 3, 2h post-treatment): 1.6 | TAF5L expression (Epigenetic regulators; 5µM batch 3, 2h post-treatment): 0.8 | TBL1XR1 expression (Epigenetic regulators; 5µM batch 3, 2h post-treatment): 2.6 | ZMYND8 expression (Epigenetic regulators; 5µM batch 3, 2h post-treatment): 1.3 | EED expression (Epigenetic regulators; 5µM batch 3, 4h post-treatment): 0.5 | SETD6 expression (Epigenetic regulators; 5µM batch 3, 4h post-treatment): 0.7 | SMARCAL1 expression (Epigenetic regulators; 5µM batch 3, 4h post-treatment): 0.8 | TAF5L expression (Epigenetic regulators; 5µM batch 3, 4h post-treatment): 0.3 | TBL1XR1 expression (Epigenetic regulators; 5µM batch 3, 4h post-treatment): 0.6 | ZMYND8 expression (Epigenetic regulators; 5µM batch 3, 4h post-treatment): 0.5
